Eleven compounds from ChEMBL document CHEMBL2396549, “The discovery of BMS-457, a potent and selective CCR1 antagonist” (Bioorg Med Chem Lett, 2013) can be followed below.

Structures are written as SMILES. Active and inactive are the calls of the source. The rule behind the calls is not given here. Bounds are passed on as bounds.

Usually IC50 stands for the point on the concentration scale where inhibition reaches its midpoint. By inhibition is commonly meant the relative decrease from the control value, in per cent. Usually EC20 stands for the concentration at which the effect reaches the 20% level. A word on the bioavailability: it is the share of a dose that reaches the circulation, judged against a reference dose that is usually intravenous. The fraction unbound is free concentration divided by total concentration. As usually defined, the EC50 is the concentration needed to bring the measured effect to its halfway point.

Series [1] deals with T1, C-C chemokine receptor type 1 (Homo sapiens, UniProt P32246).
T1 sequence (P32246 whole entry): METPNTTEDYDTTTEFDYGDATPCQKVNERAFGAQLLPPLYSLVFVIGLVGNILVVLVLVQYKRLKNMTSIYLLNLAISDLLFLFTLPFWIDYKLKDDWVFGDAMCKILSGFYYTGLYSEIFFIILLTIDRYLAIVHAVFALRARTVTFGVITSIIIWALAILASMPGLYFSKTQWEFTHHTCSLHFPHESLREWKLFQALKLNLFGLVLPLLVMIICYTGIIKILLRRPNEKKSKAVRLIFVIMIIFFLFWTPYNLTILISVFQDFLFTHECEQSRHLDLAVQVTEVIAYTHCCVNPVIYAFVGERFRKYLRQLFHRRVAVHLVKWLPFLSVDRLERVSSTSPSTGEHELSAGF
Kind of series: Binding affinity to human CCR1.

In a further series the test system is Liver. The experiment in a line: Metabolic stability in mouse liver microsomes assessed as compound remaining. It counts as ADME, Microsome. Background: Liver microsomes are vesicles of endoplasmic reticulum, rich in cytochrome P450 enzymes.
For series [2], the species on record is Homo sapiens. Kind of series: Inhibition of sodium channel (unknown origin) at 10 uM.
The species entered for series [3] is Homo sapiens. Kind of series: Inhibition of calcium channel (unknown origin) at 10 uM.
In series [4] the target is T2, Nuclear receptor subfamily 1 group I member 2 (Homo sapiens, UniProt O75469).
T2 sequence (O75469 whole entry): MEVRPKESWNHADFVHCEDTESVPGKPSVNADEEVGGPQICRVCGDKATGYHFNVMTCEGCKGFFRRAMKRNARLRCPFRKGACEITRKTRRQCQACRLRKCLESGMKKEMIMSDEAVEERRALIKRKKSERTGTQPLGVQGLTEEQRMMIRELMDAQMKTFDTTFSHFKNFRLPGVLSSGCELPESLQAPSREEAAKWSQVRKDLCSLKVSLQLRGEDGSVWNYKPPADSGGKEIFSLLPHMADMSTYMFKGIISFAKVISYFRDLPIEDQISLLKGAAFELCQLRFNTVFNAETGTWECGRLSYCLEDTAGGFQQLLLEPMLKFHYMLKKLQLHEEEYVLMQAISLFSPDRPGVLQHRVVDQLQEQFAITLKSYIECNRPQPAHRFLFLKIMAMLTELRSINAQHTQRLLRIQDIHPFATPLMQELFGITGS
Kind of series: Induction of PXR (unknown origin). Conditions: for EC20 / EC60: human.

Series [5] is described as follows: Metabolic stability in monkey liver microsomes assessed as compound remaining. It counts as ADME, Macaca mulatta, Microsome. Conditions: rhesus monkey.
The subject of series [6] is Liver microsomes. Kind of series: Metabolic stability in human liver microsomes assessed as compound remaining. It counts as ADME, Microsome.
Series [7] concerns Liver microsomes. Kind of series: Metabolic stability in rat liver microsomes assessed as compound remaining. It counts as ADME, Microsome.
In another series the target is T3, Cytochrome P450 1A2 (Homo sapiens, UniProt P05177).
T3 sequence (P05177 whole entry): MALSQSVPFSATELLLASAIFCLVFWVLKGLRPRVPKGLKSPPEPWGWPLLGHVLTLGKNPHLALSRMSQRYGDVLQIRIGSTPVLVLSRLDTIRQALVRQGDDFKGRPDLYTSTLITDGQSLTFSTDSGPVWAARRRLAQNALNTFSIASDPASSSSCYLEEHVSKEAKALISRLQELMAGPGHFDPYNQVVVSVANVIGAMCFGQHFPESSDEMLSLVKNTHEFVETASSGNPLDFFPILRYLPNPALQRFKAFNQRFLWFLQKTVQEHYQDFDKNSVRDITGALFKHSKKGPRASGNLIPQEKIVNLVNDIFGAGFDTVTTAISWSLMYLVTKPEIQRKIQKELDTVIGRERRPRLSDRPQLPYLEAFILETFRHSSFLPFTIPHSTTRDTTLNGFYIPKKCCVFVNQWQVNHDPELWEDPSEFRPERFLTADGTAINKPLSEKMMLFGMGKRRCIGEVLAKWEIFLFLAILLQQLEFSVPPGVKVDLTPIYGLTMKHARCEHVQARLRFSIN
The experiment in a line: Inhibition of CYP1A2 (unknown origin). It counts as ADME.

A short description of series [8]: Oral bioavailability in cynomolgus monkey at 2 mg/kg. The class given is ADME, organism-based, Macaca fascicularis. Conditions: in vivo.
Series [9] is filed under the species Homo sapiens. The experiment in a line: (§1) Inhibition of calcium channel (unknown origin).
The target of another series is Cytochrome P450 3A4 (Homo sapiens, UniProt P08684). Kind of series: Inhibition of CYP3A4 (unknown origin). The class given is ADME.
Chain of Cytochrome P450 3A4 (P08684 whole entry): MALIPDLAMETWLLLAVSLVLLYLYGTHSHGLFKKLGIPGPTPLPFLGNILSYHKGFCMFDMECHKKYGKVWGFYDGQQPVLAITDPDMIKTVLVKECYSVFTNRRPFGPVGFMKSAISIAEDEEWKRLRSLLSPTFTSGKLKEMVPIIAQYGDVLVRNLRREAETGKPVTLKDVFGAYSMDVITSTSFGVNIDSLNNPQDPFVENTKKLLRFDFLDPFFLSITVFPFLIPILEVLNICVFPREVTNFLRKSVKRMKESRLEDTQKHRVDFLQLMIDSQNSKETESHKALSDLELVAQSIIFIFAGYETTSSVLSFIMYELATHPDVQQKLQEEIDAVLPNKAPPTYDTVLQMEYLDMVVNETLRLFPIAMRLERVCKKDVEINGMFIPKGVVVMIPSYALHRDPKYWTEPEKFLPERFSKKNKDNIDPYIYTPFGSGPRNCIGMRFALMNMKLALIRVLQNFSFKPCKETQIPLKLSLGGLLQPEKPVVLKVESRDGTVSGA
The target in another series is Cytochrome P450 2D6 (Homo sapiens, UniProt P10635). Kind of series: Inhibition of CYP2D6 (unknown origin). It counts as ADME.
Chain of Cytochrome P450 2D6 (P10635 whole entry): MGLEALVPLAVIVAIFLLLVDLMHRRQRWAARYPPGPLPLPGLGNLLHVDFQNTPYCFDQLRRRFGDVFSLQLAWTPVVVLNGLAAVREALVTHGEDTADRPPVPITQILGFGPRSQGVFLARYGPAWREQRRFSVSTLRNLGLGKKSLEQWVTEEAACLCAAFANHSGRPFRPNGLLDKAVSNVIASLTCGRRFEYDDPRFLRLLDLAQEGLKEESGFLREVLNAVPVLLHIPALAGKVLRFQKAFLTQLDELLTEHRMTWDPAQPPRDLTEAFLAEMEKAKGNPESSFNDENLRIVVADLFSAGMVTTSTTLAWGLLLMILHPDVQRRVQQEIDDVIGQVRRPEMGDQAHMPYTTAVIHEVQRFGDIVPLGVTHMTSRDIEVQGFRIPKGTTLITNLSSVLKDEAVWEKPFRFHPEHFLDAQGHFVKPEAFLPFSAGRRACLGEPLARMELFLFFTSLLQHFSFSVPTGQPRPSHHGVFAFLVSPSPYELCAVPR
Series [10] can be described thus: Fraction unbound in human serum. The class given is ADME, cell-free.
In another series the target is Cytochrome P450 2C19 (Homo sapiens, UniProt P33261). The experiment in a line: Inhibition of CYP2C19 (unknown origin). The class given is ADME.
Chain of Cytochrome P450 2C19 (P33261 whole entry): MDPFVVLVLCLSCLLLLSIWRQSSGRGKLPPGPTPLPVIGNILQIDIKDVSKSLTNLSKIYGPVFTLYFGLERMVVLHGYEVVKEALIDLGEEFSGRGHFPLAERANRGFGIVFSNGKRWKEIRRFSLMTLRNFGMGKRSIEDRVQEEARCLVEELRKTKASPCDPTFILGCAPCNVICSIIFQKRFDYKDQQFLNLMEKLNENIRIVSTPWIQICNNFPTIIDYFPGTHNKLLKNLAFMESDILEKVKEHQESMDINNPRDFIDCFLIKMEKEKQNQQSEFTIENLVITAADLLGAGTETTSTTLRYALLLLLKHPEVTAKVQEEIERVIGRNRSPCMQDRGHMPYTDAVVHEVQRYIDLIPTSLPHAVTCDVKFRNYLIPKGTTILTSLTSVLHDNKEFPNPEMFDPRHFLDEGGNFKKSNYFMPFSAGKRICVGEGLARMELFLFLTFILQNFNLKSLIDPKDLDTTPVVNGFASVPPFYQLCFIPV
For series [11], the target named is T1, C-C chemokine receptor type 1. The experiment in a line: Antagonist activity at CCR1 in whole blood (unknown origin) assessed as inhibition of MIP1alpha-induced upregulation of beta2-integrin CD11b.
For another series, the target named is Cytochrome P450 2C9 (Homo sapiens, UniProt P11712). Kind of series: Inhibition of CYP2C9 (unknown origin). The class given is ADME.
Chain of Cytochrome P450 2C9 (P11712 whole entry): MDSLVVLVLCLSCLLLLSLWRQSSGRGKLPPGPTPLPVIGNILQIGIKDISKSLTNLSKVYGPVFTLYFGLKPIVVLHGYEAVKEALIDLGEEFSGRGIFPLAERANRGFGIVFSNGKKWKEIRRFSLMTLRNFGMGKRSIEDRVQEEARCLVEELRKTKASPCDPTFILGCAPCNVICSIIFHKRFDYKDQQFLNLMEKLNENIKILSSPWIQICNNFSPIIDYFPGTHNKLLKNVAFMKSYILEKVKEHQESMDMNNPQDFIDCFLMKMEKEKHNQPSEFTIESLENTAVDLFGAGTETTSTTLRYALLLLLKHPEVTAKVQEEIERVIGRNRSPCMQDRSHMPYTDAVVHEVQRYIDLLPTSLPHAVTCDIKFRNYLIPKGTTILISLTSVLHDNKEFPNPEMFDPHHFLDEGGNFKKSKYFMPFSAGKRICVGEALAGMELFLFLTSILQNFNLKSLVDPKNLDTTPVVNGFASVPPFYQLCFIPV
Series [12] addresses Voltage-gated inwardly rectifying potassium channel KCNH2 (Homo sapiens, UniProt Q12809). The experiment in a line: Inhibition of human ERG by patch clamp assay.
The target in the next series is hERG (KCNH2) (Homo sapiens, UniProt Q12809). Kind of series: Inhibition of human ERG at 10 uM by patch clamp assay. In general terms: Patch clamp records ionic current or voltage across a cell membrane.
Chain of hERG (KCNH2) (Q12809 whole entry): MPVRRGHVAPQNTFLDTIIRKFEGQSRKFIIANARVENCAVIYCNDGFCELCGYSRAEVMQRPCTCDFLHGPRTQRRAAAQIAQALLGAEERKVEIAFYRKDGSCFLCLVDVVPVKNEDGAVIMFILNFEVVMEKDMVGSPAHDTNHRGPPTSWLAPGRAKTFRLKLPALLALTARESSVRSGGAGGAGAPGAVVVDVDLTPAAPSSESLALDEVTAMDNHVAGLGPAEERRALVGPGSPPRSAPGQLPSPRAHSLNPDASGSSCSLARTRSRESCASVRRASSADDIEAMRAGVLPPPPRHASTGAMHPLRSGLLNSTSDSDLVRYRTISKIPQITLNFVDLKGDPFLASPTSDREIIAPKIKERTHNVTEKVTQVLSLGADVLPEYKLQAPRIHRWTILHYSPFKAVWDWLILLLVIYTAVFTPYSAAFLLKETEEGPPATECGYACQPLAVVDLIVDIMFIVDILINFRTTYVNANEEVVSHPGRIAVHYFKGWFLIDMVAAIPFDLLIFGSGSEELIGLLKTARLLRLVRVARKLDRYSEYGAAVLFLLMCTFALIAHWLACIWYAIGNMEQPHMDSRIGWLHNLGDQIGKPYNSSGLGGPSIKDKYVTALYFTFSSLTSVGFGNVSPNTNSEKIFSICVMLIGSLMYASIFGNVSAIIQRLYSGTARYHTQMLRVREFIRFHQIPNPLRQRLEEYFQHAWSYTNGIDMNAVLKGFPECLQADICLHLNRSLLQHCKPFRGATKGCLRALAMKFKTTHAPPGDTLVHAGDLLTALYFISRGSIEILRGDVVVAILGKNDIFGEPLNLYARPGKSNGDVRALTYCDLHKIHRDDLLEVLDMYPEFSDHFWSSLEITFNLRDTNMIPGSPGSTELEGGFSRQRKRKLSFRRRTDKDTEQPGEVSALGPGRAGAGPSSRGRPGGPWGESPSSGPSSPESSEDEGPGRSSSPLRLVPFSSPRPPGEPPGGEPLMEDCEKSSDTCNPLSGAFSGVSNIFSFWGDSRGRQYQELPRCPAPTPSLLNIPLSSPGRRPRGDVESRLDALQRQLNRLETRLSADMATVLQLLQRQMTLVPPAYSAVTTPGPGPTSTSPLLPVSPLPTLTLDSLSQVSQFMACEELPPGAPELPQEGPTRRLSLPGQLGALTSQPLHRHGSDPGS
The target in series [13] is T1, C-C chemokine receptor type 1. The experiment in a line: Antagonist activity at CCR1 in whole blood (unknown origin) assessed as inhibition of LKN1-induced upregulation of beta2-integrin CD11b.
Series [14] is filed under the species Homo sapiens. Kind of series: (§2) Inhibition of sodium channel (unknown origin).
Series [15] can be described thus: Oral bioavailability in mouse at 9 mg/kg. The class given is ADME, organism-based. Conditions: in vivo.
Series [16] deals with T1, C-C chemokine receptor type 1. The experiment in a line: Antagonist activity at human CCR1 assessed as inhibition of MIP1alpha-induced chemotaxis.
Series [17] can be described thus: as §1. Also on record: species or system Homo sapiens.
Series [18] can be described thus: as §2. Also on record: species or system Homo sapiens.
The nature of series [19]: Antagonist activity at human CCR1 assessed as inhibition of MIP1alpha-induced chemotaxis.

Chain of Voltage-gated inwardly rectifying potassium channel KCNH2 (Q12809 whole entry): as above

With `CC(C)[C@@H](NC(=O)[C@H]1CC[C@@H](O)C1)C(=O)N1CC[C@](O)(c2ccc(Cl)cc2)C(C)(C)C1` (mixture of isomers), the IC50 in [1] came out at 1.6 nM. Besides, the Stability in the series with Liver was found to be 65%; in [5] it was 21%; in the series on Liver microsomes [6], 69%; in the series with Liver microsomes [7], 67%. The inhibition in the series listed under Homo sapiens [2] is 19%; in the series filed under Homo sapiens [3], 9%. This compound gave a concentration for an effect of 20% (EC20) in series [4] of 1800 nM. Moreover, the EC60 in series [4] turned out to be 7400 nM.

In the case of `CC(C)[C@@H](NC(=O)[C@@H]1CC[C@@H](O)C1)C(=O)N1CC[C@](O)(c2ccc(Cl)cc2)C(C)(C)C1` (mixture of isomers), the “inhibition (INH)” value at Cytochrome P450 1A2, on Cytochrome P450 3A4, against Cytochrome P450 2D6, against Cytochrome P450 2C19 and at Cytochrome P450 2C9 was “Not Active” throughout. The bioavailability was 54% in series [8] and 100% in series [15]. Moreover, the values for the IC50 in series [1], in series [11] and in series [13] were 0.8 nM, 46 nM and 54 nM, respectively. In addition, the Stability is given as 88% in the series on Liver, 66% in [5], 98% with Liver microsomes [6] and 87% with Liver microsomes [7]. Further, the inhibition entry in the series filed under Homo sapiens [9] and in the series listed under Homo sapiens [14] was “inactive” in each case. Besides, the inhibition in the series listed under Homo sapiens [2] amounted to 14%; in the series listed under Homo sapiens [3], 11%. In series [4], this compound registered an EC20 of 41000 nM. Besides, the EC60 in series [4] was more than 50000 nM. Also, the fraction unbound in series [10] turned out to be 0.16. In addition, the INH in [12] is more than 80 µM. Further, on hERG (KCNH2), the inhibition at 10 µM stood at 3%.

`CC(C)[C@@H](NC(=O)C1CCCC1)C(=O)N1CC[C@](O)(c2ccc(Cl)cc2)C(C)(C)C1` had an IC50 in [1] of 1.4 nM. Besides, the Stability with Liver came to 26%; in [5] it was 4%; with Liver microsomes [6], 47%; in the series on Liver microsomes [7], 50%. For the same compound, the inhibition in the series filed under Homo sapiens [2] was 52%; in the series listed under Homo sapiens [3], 50%. Besides, in series [4], the EC20 was determined as 400 nM. The EC60 in series [4] is 1400 nM.

Consider `CC(C)[C@@H](NC(=O)[C@@H]1CC[C@H](O)C1)C(=O)N1CC[C@](O)(c2ccc(Cl)cc2)C(C)(C)C1` (mixture of isomers), for which, in series [1], the IC50 amounted to 0.8 nM. Further, the Stability in the series on Liver is reported as 60%; in series [5] it was 22%; in the series with Liver microsomes [6] it was 43%; with Liver microsomes [7], 75%. The inhibition in the series listed under Homo sapiens [2] was 5%; in the series listed under Homo sapiens [3], -4%. In series [4], the EC20 was determined as 5300 nM. The EC60 in series [4] was more than 50000 nM.

Compound `CC(C)[C@@H](NC(=O)[C@H]1CC[C@H](O)C1)C(=O)N1CC[C@](O)(c2ccc(Cl)cc2)C(C)(C)C1` (mixture of isomers) showed an IC50 in series [1] of 6.3 nM. Moreover, the Stability is listed as 90% with Liver, 59% in series [5], 95% in the series with Liver microsomes [6] and 74% in the series on Liver microsomes [7]. The inhibition in the series listed under Homo sapiens [2] was 4%; in the series filed under Homo sapiens [3] it was -3%. Besides, the 20% effect concentration (EC20) in series [4] is more than 50000 nM. In addition, the EC60 in series [4] is more than 50000 nM.

As for `CC(C)[C@H](CN1CC[C@](O)(c2ccc(Cl)cc2)C(C)(C)C1)NC(=O)c1ccccc1`, the IC50 was 2240 nM in [1] and “Not Active” in series [16].

For the compound `CC(C)[C@@H](NC(=O)[C@@H]1CCC[C@@H]1O)C(=O)N1CC[C@](O)(c2ccc(Cl)cc2)C(C)(C)C1` (relative stereo), the IC50 in [1] is 2.3 nM; in [17], 61000 nM; in series [18], more than 80000 nM. In addition, the Stability amounted to 49% in the series on Liver, 1% in series [5], 33% in the series on Liver microsomes [6] and 20% in the series with Liver microsomes [7]. This compound also displayed an EC50 in series [4] of 1400 nM.

As for `CC(C)[C@@H](NC(=O)c1ccccc1)C(=O)N1CCC(c2ccc(Cl)cc2)CC1`, the results for the IC50 in series [19] and in series [1] were 78 nM and 30 nM, respectively.

`CC(C)[C@@H](NC(=O)c1cccc(S(N)(=O)=O)c1)C(=O)N1CC[C@](O)(c2ccc(Cl)cc2)C(C)(C)C1` returned a concentration for half-maximal inhibition (IC50) in [1] of 3 nM. Also, the Stability with Liver was 99%; in series [5] it was 100%; with Liver microsomes [6] it was 96%; in the series with Liver microsomes [7] it was 100%. Further, the inhibition in the series listed under Homo sapiens [2] turned out to be 39%; in the series listed under Homo sapiens [3], 31%. The concentration for an effect of 20% (EC20) in [4] was more than 50000 nM. The compound also displayed an EC60 in series [4] of more than 50000 nM.

Compound `CC(C)[C@@H](NC(=O)c1cccc(C(=O)O)c1)C(=O)N1CC[C@](O)(c2ccc(Cl)cc2)C(C)(C)C1` yielded an IC50 in series [1] of 7.1 nM. The Stability in the series on Liver amounted to 100%; in series [5] it was 100%; in the series with Liver microsomes [6] it was 100%; in the series on Liver microsomes [7], 97%. Further, the inhibition in the series listed under Homo sapiens [2] amounted to 3%; in the series filed under Homo sapiens [3] it was 0%. Further, the EC20 in series [4] was more than 50000 nM. This compound registered an EC60 in series [4] of more than 50000 nM.

In the case of `CC(C)[C@@H](NC(=O)[C@@H]1CCC[C@@H]1N)C(=O)N1CC[C@](O)(c2ccc(Cl)cc2)C(C)(C)C1`, the IC50 was determined as 2.2 nM in series [1], 21000 nM in series [17] and 39000 nM in series [18]. Moreover, the Stability with Liver turned out to be 92%; in series [5], 93%; with Liver microsomes [6] it was 94%; in the series with Liver microsomes [7] it was 93%. In series [4], the midpoint of the response, the EC50, lay at 8500 nM.
